# Activity calls are given as the source filed them. The calls are words filed in the database; no cut-off is given here.
# Columns and labels:
# MCF7R = experiment: Cytotoxicity against human mammary tumor cell line MCF7-R; type: functional, cell-based
# MCF7S = experiment: Cytotoxicity against human mammary tumor cell line MCF7-S; type: functional, cell-based
# DLD-1 [1] = experiment: Efficacy against Pgp+ human colon tumor xenograft DLD1 in SCID mice at 240 mg/kg, iv; type: functional, organism-based; design: dose 240 mg/kg
# DLD-1 [2] = experiment: Efficacy against Pgp+ human colon tumor xenograft DLD1 in SCID mice at 75 mg/kg, iv; type: functional, organism-based; design: dose 75 mg/kg
# A121 = experiment: Efficacy against Pgp- human ovarian tumor xenograft A121 in SCID mice at 90 mg/kg, iv
SMILES,IC50 (MCF7R) [nM],IC50 (MCF7S) [nM],Activity (DLD-1 [1]),Activity (DLD-1 [2]),Activity (A121)
COC(=O)O[C@H]1C(=O)[C@@]2(C)C([C@H](OC(=O)c3ccccc3)[C@]3(O)C[C@H](OC(=O)[C@H](O)[C@H](C=C(C)C)NC(=O)OC(C)(C)C)C(C)=C1C3(C)C)[C@]1(OC(C)=O)CO[C@@H]1C[C@@H]2O (some centres not stated),9.7,0.14,–,–,–
CCC(=O)O[C@H]1C(=O)[C@@]2(C)[C@H]([C@H](OC(=O)c3ccccc3)[C@]3(O)C[C@H](OC(=O)[C@H](O)[C@H](C=C(C)C)NC(=O)OC(C)(C)C)C(C)=C1C3(C)C)[C@]1(OC(C)=O)CO[C@@H]1C[C@@H]2O,4,0.18,Active,–,–
CC/C=C\C/C=C\C/C=C\CCCCCCCC(=O)O[C@@H](C(=O)O[C@H]1C[C@@]2(O)[C@@H](OC(=O)c3ccccc3)C3[C@](C)(C(=O)[C@H](OC(=O)CC)C(=C1C)C2(C)C)[C@@H](O)C[C@H]1OC[C@@]31OC(C)=O)[C@H](C=C(C)C)NC(=O)OC(C)(C)C (some centres not stated),–,–,–,Active,–
CC(=O)O[C@@]12CO[C@@H]1C[C@H](O)[C@@]1(C)C(=O)[C@H](OC(=O)C3CC3)C3=C(C)[C@@H](OC(=O)[C@H](O)[C@H](C=C(C)C)NC(=O)OC(C)(C)C)C[C@@](O)([C@@H](OC(=O)c4ccccc4)[C@H]21)C3(C)C,3.9,0.2,Active,–,–
CCCCC/C=C\C/C=C\CCCCCCCC(=O)O[C@@H](C(=O)O[C@H]1C[C@@]2(O)[C@@H](OC(=O)c3ccccc3)C3[C@](C)(C(=O)[C@H](OC(=O)CC)C(=C1C)C2(C)C)[C@@H](O)C[C@H]1OC[C@@]31OC(C)=O)[C@H](C=C(C)C)NC(=O)OC(C)(C)C (some centres not stated),–,–,–,Active,–
CC(=O)O[C@@]12CO[C@@H]1C[C@H](O)[C@@]1(C)C(=O)[C@H](OC(=O)N(C)C)C3=C(C)[C@@H](OC(=O)[C@H](O)[C@H](C=C(C)C)NC(=O)OC(C)(C)C)C[C@@](O)([C@@H](OC(=O)c4ccccc4)C12)C3(C)C (some centres not stated),7.4,0.13,–,–,–
CC/C=C\C/C=C\C/C=C\C/C=C\C/C=C\C/C=C/CCC(=O)O[C@@H](C(=O)O[C@H]1C[C@@]2(O)[C@@H](OC(=O)c3ccccc3)C3[C@](C)(C(=O)[C@H](OC(C)=O)C(=C1C)C2(C)C)[C@@H](O)C[C@H]1OC[C@@]31OC(C)=O)[C@@H](NC(=O)c1ccccc1)c1ccccc1 (some centres not stated),–,–,inactive,–,–
CC(=O)O[C@H]1C(=O)[C@@]2(C)[C@H]([C@H](OC(=O)c3ccccc3)[C@]3(O)C[C@H](OC(=O)[C@H](O)[C@@H](NC(=O)c4ccccc4)c4ccccc4)C(C)=C1C3(C)C)[C@]1(OC(C)=O)CO[C@@H]1C[C@@H]2O [PACLITAXEL],550,1.7,–,–,–
CCC(=O)O[C@H]1C(=O)[C@@]2(C)[C@H]([C@H](OC(=O)c3ccccc3)[C@]3(O)C[C@H](OC(=O)[C@H](O)[C@H](CC(C)C)NC(=O)OC(C)(C)C)C(C)=C1C3(C)C)[C@]1(OC(C)=O)CO[C@@H]1C[C@@H]2O,5.1,0.35,–,–,–
CC(=O)O[C@@]12CO[C@@H]1C[C@H](O)[C@@]1(C)C(=O)[C@H](O)C3=C(C)[C@@H](OC(=O)[C@H](O)[C@@H](NC(=O)OC(C)(C)C)c4ccccc4)C[C@@](O)([C@@H](OC(=O)c4ccccc4)[C@H]21)C3(C)C [DOCETAXEL],723,1,–,–,–
CC(=O)O[C@@]12CO[C@@H]1C[C@H](O)[C@@]1(C)C(=O)[C@H](OC(=O)C3CC3)C3=C(C)[C@@H](OC(=O)[C@H](O)[C@H](CC(C)C)NC(=O)OC(C)(C)C)C[C@@](O)([C@@H](OC(=O)c4ccccc4)C12)C3(C)C (some centres not stated),7.9,0.51,–,–,–
CC/C=C\C/C=C\C/C=C\C/C=C\C/C=C\C/C=C/CCC(=O)O[C@@H](C(=O)O[C@H]1C[C@@]2(O)[C@@H](OC(=O)c3ccccc3)C3[C@](C)(C(=O)[C@H](OC(=O)N(C)C)C(=C1C)C2(C)C)[C@@H](O)C[C@H]1OC[C@@]31OC(C)=O)[C@H](C=C(C)C)NC(=O)OC(C)(C)C (some centres not stated),–,–,–,–,Active

# — ChEMBL document CHEMBL1138108, “Syntheses and evaluation of novel fatty acid-second-generation taxoid conjugates as promising anticancer agents” (Bioorg Med Chem Lett, 2006)
